The text below walks through data of patent publication US20260265238A1, “COMPOUNDS AND PHARMACEUTICAL COMPOSITIONS THAT DEGRADE SWI/SNF-RELATED MATRIX-ASSOCIATED ACTIN-DEPENDENT REGULATOR OF CHROMATIN SUBFAMILY A” (Plexium, Inc., priority 2023, published 2026).

Assay [1] concerns the target T1, SMARCA2-HiBiT HeLa cells (protein which is expressed from the SMARCA2 gene) (Homo sapiens, UniProt P51531).
T1 construct: protein which is expressed from the SMARCA2 and SMARCA4 genes; host or cells: HeLa (SMARCA2-HiBiT engineered line)
Description: SMARCA2 degradation assay (HiBiT-fusion HeLa cell line, 24 h, luminescence). It is filed as cell-based. The essentials:
(§1)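 HiBiT-fusion HeLa lines, 8,000 cells/well, overnight attachment; cpd 10-pt series (typically 10 μM–300 pM), 24 h, 37° C. Lysis with LgBiT + HiBiT substrate, 10 min shaking at RT, luminescence read. DC50 from dose-response fit; % degradation also scored at 1 μM.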

The target of assay [2] is T2, SMARCA4-HiBiT HeLa cells (protein which is expressed from the SMARCA4 gene) (Homo sapiens, UniProt P51532).
T2 construct: protein which is expressed from the SMARCA2 and SMARCA4 genes; host or cells: HeLa (SMARCA4-HiBiT engineered line)
Description: SMARCA4 degradation assay (HiBiT-fusion HeLa cell line, 24 h, luminescence). It is filed as cell-based. The method, boiled down:
as §1
(The HiBiT peptide binds its large partner to form an active luciferase.)

T2 sequence (P51532 whole entry): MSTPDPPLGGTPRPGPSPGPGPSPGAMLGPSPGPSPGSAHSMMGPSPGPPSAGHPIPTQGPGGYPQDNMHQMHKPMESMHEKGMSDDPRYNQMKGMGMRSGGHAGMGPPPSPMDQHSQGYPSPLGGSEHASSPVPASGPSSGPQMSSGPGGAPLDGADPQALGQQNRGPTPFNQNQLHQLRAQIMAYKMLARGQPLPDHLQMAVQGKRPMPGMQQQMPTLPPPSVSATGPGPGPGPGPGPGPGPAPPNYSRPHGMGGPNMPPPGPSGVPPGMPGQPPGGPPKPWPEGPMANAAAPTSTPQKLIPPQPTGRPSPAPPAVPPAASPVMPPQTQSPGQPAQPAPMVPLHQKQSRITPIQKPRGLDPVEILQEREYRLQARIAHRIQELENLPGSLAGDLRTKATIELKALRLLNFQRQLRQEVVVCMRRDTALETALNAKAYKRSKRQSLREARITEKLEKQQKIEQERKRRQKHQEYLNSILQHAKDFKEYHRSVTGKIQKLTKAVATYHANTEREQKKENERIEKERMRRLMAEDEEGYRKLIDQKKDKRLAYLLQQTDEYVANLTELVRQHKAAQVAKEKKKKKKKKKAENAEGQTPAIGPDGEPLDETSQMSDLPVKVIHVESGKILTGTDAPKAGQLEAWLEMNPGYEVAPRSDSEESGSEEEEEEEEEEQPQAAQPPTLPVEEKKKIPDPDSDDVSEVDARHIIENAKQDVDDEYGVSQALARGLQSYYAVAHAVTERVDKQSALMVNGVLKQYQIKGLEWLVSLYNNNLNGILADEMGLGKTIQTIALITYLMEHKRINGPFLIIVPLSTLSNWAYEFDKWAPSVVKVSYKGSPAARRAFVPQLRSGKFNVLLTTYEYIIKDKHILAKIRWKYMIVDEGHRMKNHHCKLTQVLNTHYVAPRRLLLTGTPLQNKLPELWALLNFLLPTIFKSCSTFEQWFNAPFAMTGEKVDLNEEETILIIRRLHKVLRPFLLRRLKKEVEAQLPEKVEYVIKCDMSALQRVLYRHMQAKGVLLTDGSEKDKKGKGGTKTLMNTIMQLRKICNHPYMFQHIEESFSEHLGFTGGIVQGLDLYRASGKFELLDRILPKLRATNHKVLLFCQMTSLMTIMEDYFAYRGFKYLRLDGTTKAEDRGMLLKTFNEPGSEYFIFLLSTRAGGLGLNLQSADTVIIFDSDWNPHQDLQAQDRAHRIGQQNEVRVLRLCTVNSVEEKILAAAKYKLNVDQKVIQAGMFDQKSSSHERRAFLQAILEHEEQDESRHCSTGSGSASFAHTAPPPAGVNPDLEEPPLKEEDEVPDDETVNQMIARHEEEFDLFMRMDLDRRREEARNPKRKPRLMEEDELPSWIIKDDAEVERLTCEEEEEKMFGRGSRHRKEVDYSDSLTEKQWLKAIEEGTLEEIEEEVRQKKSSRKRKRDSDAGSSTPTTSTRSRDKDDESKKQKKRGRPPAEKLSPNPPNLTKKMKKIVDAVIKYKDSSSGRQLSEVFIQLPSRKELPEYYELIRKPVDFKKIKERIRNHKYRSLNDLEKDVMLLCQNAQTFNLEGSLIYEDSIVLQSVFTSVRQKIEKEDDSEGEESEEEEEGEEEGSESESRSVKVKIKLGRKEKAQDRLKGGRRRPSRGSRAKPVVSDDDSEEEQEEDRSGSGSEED
T1 sequence (P51531 whole entry): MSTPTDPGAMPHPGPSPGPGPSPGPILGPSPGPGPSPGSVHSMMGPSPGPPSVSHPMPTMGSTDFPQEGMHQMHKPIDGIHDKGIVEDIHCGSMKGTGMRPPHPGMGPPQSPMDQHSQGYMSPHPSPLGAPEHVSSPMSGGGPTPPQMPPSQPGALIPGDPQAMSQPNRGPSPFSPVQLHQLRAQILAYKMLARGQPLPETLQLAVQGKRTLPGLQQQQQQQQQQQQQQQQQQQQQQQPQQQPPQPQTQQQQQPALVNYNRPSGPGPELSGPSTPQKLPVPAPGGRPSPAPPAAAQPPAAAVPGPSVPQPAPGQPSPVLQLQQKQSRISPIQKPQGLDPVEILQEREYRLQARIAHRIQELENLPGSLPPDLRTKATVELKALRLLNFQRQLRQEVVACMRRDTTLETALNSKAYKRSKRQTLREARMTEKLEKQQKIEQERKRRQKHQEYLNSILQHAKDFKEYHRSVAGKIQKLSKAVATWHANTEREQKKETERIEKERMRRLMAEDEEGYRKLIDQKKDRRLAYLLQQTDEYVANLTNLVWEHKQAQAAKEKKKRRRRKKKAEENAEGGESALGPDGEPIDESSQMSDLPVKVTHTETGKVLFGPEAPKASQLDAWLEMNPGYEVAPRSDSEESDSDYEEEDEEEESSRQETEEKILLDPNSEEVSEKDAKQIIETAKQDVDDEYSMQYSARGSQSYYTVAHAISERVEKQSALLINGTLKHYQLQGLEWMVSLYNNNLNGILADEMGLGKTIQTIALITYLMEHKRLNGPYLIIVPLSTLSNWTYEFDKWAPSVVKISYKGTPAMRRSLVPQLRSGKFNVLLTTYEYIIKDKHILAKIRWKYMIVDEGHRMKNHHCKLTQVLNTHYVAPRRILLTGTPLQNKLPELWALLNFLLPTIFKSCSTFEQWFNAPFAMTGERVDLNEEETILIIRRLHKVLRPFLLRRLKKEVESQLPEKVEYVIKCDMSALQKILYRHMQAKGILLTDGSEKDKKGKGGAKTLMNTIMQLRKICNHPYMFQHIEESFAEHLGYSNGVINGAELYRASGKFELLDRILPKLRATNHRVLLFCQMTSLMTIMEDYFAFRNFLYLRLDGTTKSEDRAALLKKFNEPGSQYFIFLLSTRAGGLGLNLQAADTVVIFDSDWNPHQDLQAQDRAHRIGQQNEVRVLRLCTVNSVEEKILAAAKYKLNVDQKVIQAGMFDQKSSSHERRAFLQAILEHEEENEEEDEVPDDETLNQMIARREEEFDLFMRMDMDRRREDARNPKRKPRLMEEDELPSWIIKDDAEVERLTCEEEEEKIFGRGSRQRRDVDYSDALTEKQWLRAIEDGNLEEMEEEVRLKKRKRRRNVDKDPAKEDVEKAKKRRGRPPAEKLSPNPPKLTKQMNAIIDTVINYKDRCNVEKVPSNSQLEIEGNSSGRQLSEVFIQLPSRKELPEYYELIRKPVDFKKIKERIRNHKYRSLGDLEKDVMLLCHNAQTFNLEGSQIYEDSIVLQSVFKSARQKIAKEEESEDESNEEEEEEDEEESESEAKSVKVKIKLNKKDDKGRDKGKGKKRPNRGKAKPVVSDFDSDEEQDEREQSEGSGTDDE

The DC50 is the concentration giving 50% degradation. The term inhibition denotes the change of the read-out against control, counted positive when it falls. Lower therefore signals a weak effect. Turning to `C[C@@H]1CCN(c2cc(-c3ccccc3O)nnc2N)CCN1c1ccnc(C#CC2CC(F)(F)C2)n1` [Compound P-269, 0-{5-[(R)-4-{2-[2-(3,3-difluorocyclobutyl)ethynyl]-4-pyrimidinyl}-5-methyl-1,4-diazepan-1-y1]-6-amino-3-pyridazinyl} phenol], the DC50 in assay [1] and in assay [2] was 50 to 500 nM throughout. For the same compound, the “SMARCA2 % Degradation @ 1 μM” value in assay [1] (@ 1 μM) is “+++ (+++=>70%)”. In addition, in assay [2] (@ 1 μM), the inhibition at 1 µM was over 70%.

With `C[C@@H]1CCN(c2cc(-c3ccccc3O)nnc2N)CCN1c1ccc(C#N)c(C#CCN(C)C)n1` [Compound P-423, 6-{(R)-4-[3-amino-6-(0-hydroxyphenyl)-4-pyridaziny1]-7-methyl-1,4-diazepan-1-yl}-2-[3-(dimethylamino)-1-propynyl]nicotinonitrile], the half-maximal degradation concentration (DC50) in assay [1] and in assay [2] was under 50 nM each time. Moreover, the “SMARCA2 % Degradation @ 1 μM” value in assay [1] (1 μM) was “++ (++=30-70%)”. In addition, the inhibition at 1 µM in assay [2] (1 μM) lay within 30 to 70%.

`COCC1COCCN1CC#Cc1nccc(N2CCN(c3cc(-c4ccccc4O)nnc3N)CC[C@H]2C)n1` (stereo partly drawn) [Compound P-162, o-{5-[(R)-4-(2-{3-[3-(mcthoxymcthyl)-4-morpholinyl]-1-propynyl}-4-pyrimidinyl)-5-methyl-1,4-diazepan-1-yl]-6-amino-3-pyridazinyl}phenol]: the DC50 in assay [1] and in assay [2] was 50 to 500 nM in each case. The “SMARCA2 % Degradation @ 1 μM” value in assay [1] (@ 1 μM) was “++ (++=30-70%)”. In assay [2] (@ 1 μM), this compound registered an inhibition at 1 µM of 30 to 70%.

On to `C[C@@H]1CCN(c2cc(-c3ccccc3O)nnc2N)CCN1c1ccnc(C#CCO)c1` [Compound P-397, 0-(5-{(R)-4-[2-(3-hydroxy-1-propynyl)-4-pyridyl]-5-methyl-1,4-diazepan-1-yl}-6-amino-3-pyridazinyl)phenol], for which the 50% degradation concentration (DC50) fell in the range of 50 to 500 nM in assay [1] and 500 to 5000 nM in assay [2]. The “SMARCA2 % Degradation @ 1 μM” value in assay [1] (1 μM) is “++ (++=30-70%)”. For the same compound, in assay [2] (1 μM), the inhibition at 1 µM is 30 to 70%.

For `C[C@@H]1CCN(c2cc(-c3ccccc3O)nnc2N)CCN1c1ccc(C(F)(F)F)c(C#CCN2CCCC2)n1` [Compound P-394], the DC50 in assay [1] and in assay [2] was 500 to 5000 nM each time. Moreover, the “SMARCA2 % Degradation @ 1 μM” value in assay [1] (1 μM) is given as “+ (+=<30%)”.

Turning to `C[C@@H]1CCN(c2cc(-c3ccccc3O)nnc2N)CCN1c1ccnc(C#CCN2CC(F)C2)n1` [Compound P-230, o-{5-[(R)-4-{2-[3-(3-fluoro-1-azetidinyl)-1-propynyl]-4-pyrimidinyl}-5-methyl-1,4-diazepan-1-y1]-6-amino-3-pyridaziny1}phenol], the DC50 in assay [1] and in assay [2] was 50 to 500 nM throughout. Moreover, the “SMARCA2 % Degradation @ 1 μM” value in assay [1] (@ 1 μM) was “++ (++=30-70%)”. The compound further gave an inhibition at 1 µM in assay [2] (@ 1 μM) of under 30%.

For the compound `CC(=O)NCC#Cc1nccc(N2CCN(c3cc(-c4ccccc4O)nnc3N)CC2)n1` [Compound P-68, N-(3-(4-(4-(3-amino-6-(2-hydroxyphenyl)pyridazin-4-yl)piperazin-1-yl)pyrimidin-2-yl)prop-2-yn-1-yl)acetamide], the DC50 is 50 to 500 nM in assay [1] and over 5000 nM in assay [2]. Besides, the “SMARCA2 % Degradation @ 1 μM” value in assay [1] (@ 1 μM) is reported as “+ (+=<30%)”.

On to `C[C@@H]1CCN(c2cc(-c3ccccc3O)nnc2N)CCN1c1ccnc(C#CCNC(=O)OC(C)(C)C)n1` [Compound P-238], for which the DC50 in assay [1] and in assay [2] was 50 to 500 nM each time. In addition, the “SMARCA2 % Degradation @ 1 μM” value in assay [1] (@ 1 μM) is listed as “+++ (+++=>70%)”. Moreover, the inhibition at 1 µM in assay [2] (@ 1 μM) lay in the range of 30 to 70%.

For `C[C@@H]1CCN(c2cc(-c3ccccc3O)nnc2N)CCN1c1ccnc(C#CCn2ccnc2)c1` [Compound P-428, 0-{5-[(R)-4-{2-[3-(1-imidazolyl)-1-propynyl]-4-pyridyl}-5-methyl-1,4-diazepan-1-yl]-6-amino-3-pyridazinyl}phenol], the DC50 in assay [1] and in assay [2] was 50 to 500 nM throughout. In assay [1] (1 μM), the “SMARCA2 % Degradation @ 1 μM” value was “+++ (+++=>70%)”. Besides, the inhibition at 1 µM in assay [2] (1 μM) is over 70%.

In the case of `NCC#Cc1nccc(N2CC3CN(c4cc(-c5ccccc5O)nnc4N)C3C2)n1` (centres unmarked) [Compound P-84, 2-(6-amino-5-(3-(2-(3-aminoprop-1-yn-1-yl)pyrimidin-4-yl)-3,6-diazabicyclo[3.2.0]heptan-6-yl)pyridazin-3-yl)phenol], the DC50 in assay [1] is 500 to 5000 nM; in assay [2] it was over 5000 nM. In addition, the “SMARCA2 % Degradation @ 1 μM” value in assay [1] (@ 1 μM) is “+ (+=<30%)”. This compound also returned an inhibition at 1 µM in assay [2] (@ 1 μM) of under 30%.

With `Nc1nnc(-c2ccccc2O)cc1N1CCCC2C1CCN2c1ccnc(C#CCNC(=O)c2cc3ncccn3n2)n1` (centres unmarked) [Compound P-79, N-(3-(4-(4-(3-amino-6-(2-hydroxyphenyl)pyridazin-4-yl)octahydro-1H-pyrrolo[3,2-b]pyridin-1-yl)pyrimidin-2-yl)prop-2-yn-1-yl)pyrazolo[1,5-a]pyrimidine-2-carboxamide], the results for the DC50 in assay [1] and in assay [2] were 500 to 5000 nM and 50 to 500 nM, respectively. Also, in assay [1] (@ 1 μM), the “SMARCA2 % Degradation @ 1 μM” value is “++ (++=30-70%)”. This compound registered an inhibition at 1 µM in assay [2] (@ 1 μM) of 30 to 70%.

With `CC[C@H](C)NCC#Cc1nccc(N2CCCN(c3cc(-c4ccccc4O)nnc3N)CC2)n1` [Compound P-257, o-{5-[4-(2-{3-[(S)-1-methylpropylamino]-1-propynyl}-4-pyrimidinyl)-1,4-diazepan-1-yl]-6-amino-3-pyridazinyl}phenol], the DC50 in assay [1] and in assay [2] was 50 to 500 nM in each case. In addition, the “SMARCA2 % Degradation @ 1 μM” value in assay [1] (@ 1 μM) was “+++ (+++=>70%)”. In assay [2] (@ 1 μM), this compound returned an inhibition at 1 µM of 30 to 70%.

With `Nc1nnc(-c2ccccc2O)cc1N1CCN(c2ccnc(C#CCNC(=O)c3cc4n(n3)CCC4)n2)CC1` [Compound P-59, N-(3-(4-(4-(3-amino-6-(2-hydroxyphenyl)pyridazin-4-yl)piperazin-1-yl)pyrimidin-2-yl)prop-2-yn-1-yl)-5,6-dihydro-4H-pyrrolo[1,2-b]pyrazole-2-carboxamide], the DC50 is 50 to 500 nM in assay [1] and over 5000 nM in assay [2]. Further, the “SMARCA2 % Degradation @ 1 μM” value in assay [1] (@ 1 μM) is on record as “++ (++=30-70%)”.

As for `Nc1nnc(-c2ccccc2O)cc1N1CCN(c2ccnc(C#CCNC(=O)c3nc4ccccc4s3)n2)CC1` [Compound P-118, N-(3-(4-(4-(3-amino-6-(2-hydroxyphenyl)pyridazin-4-yl)piperazin-1-yl)pyrimidin-2-yl)prop-2-yn-1-yl)benzo[d]thiazole-2-carboxamide], the DC50 in assay [1] and in assay [2] was 50 to 500 nM each time. Further, the “SMARCA2 % Degradation @ 1 μM” value in assay [1] (@ 1 μM) was “++ (++=30-70%)”. Besides, the inhibition at 1 µM in assay [2] (@ 1 μM) is 30 to 70%.

With `Nc1nnc(-c2ccccc2O)cc1N1CCCN(c2ccnc(C#CCNc3nc4ccccc4o3)n2)CC1` [Compound P-26, 2-(6-amino-5-(4-(2-(3-(benzo[d]oxazol-2-ylamino)prop-1-yn-1-yl)pyrimidin-4-yl)-1,4-diazepan-1-yl)pyridazin-3-yl)phenol], the DC50 in assay [1] and in assay [2] was 50 to 500 nM each time. Further, in assay [1] (@ 1 μM), the “SMARCA2 % Degradation @ 1 μM” value is “+++ (+++=>70%)”. The compound also displayed an inhibition at 1 µM in assay [2] (@ 1 μM) of over 70%.

With `CO[C@@H]1CCN(CC#Cc2nccc(N3CCN(c4cc(-c5ccccc5O)nnc4N)CC[C@H]3C)n2)C1` [Compound P-242, o-{5-[(R)-4-(2-{3-[(R)-3-methoxy-1-pyrrolidinyl]-1-propynyl}-4-pyrimidinyl)-5-methyl-1,4-diazepan-1-yl]-6-amino-3-pyridazinyl} phenol], the DC50 in assay [1] and in assay [2] was under 50 nM each time. In assay [1] (@ 1 μM), the “SMARCA2 % Degradation @ 1 μM” value is given as “++ (++=30-70%)”. Also, in assay [2] (@ 1 μM), the inhibition at 1 µM fell in the range of 30 to 70%.

As for `Cc1nn2ccn(CC#Cc3nccc(N4CCN(c5cc(-c6ccccc6O)nnc5N)CC[C@H]4C)n3)c(=O)c2c1C` [Compound P-336, 5-[3-(4-{ (R)-4-[3-amino-6-(o-hydroxyphenyl)-4-pyridazinyl]-7-methyl-1,4-diazepan-1-yl}-2-pyrimidinyl)-2-propynyl]-2,3-dimethyl-1,5,7a-triaza-4(5H)-indenone], the DC50 in assay [1] and in assay [2] was 50 to 500 nM throughout. Besides, in assay [1] (@ 1 μM), the “SMARCA2 % Degradation @ 1 μM” value is “++ (++=30-70%)”. Also, in assay [2] (@ 1 μM), the inhibition at 1 µM was under 30%.

Take `Cc1c(C(=O)NCC#Cc2nccc(N3CCN(c4cc(-c5ccccc5O)nnc4N)CC[C@H]3C)n2)nn(C)c1C` [Compound P-239, N-[3-(4-{ (R)-4-[3-amino-6-(o-hydroxyphenyl)-4-pyridazinyl]-7-methyl-1,4-diazepan-1-y1}-2-pyrimidinyl)-2-propynyl]-1-methyl-4,5-dimethyl-3-pyrazolecarboxamide]: the DC50 in assay [1] and in assay [2] was 50 to 500 nM in each case. Besides, the “SMARCA2 % Degradation @ 1 μM” value in assay [1] (@ 1 μM) is “++ (++=30-70%)”. Besides, the inhibition at 1 µM in assay [2] (@ 1 μM) is 30 to 70%.

In the case of `Nc1nnc(-c2ccccc2O)cc1N1CC2C1CCN2c1ccnc(C#CCNC(=O)c2cc3ncccn3n2)n1` (centres unmarked) [Compound P-18, N-(3-(4-(6-(3-amino-6-(2-hydroxyphenyl)pyridazin-4-yl)-2,6-diazabicyclo[3.2.0]heptan-2-yl)pyrimidin-2-y1)prop-2-yn-1-yl)pyrazolo[1,5-a]pyrimidine-2-carboxamide], the half-maximal degradation concentration (DC50) was in the range of 500 to 5000 nM in assay [1] and 50 to 500 nM in assay [2]. Moreover, in assay [1] (@ 1 μM), the “SMARCA2 % Degradation @ 1 μM” value is listed as “+ (+=<30%)”. The compound also returned an inhibition at 1 µM in assay [2] (@ 1 μM) of 30 to 70%.

For the compound `C[C@@H]1CCN(c2cc(-c3ccccc3O)nnc2N)CCN1c1ccnc(C#CCOCC2CC(N(C)C)C2)n1` (stereo partly drawn) [Compound P-251, o-{5-[(R)-4-[2-(3-{[3-(dimethylamino)cyclobutyl]methoxy}-1-propynyl)-4-pyrimidinyl]-5-methyl-1,4-diazepan-1-yl]-6-amino-3-pyridazinyl}phenol], the DC50 in assay [1] and in assay [2] was 50 to 500 nM each time. Also, the “SMARCA2 % Degradation @ 1 μM” value in assay [1] (@ 1 μM) is on record as “+++ (+++=>70%)”. This compound also returned an inhibition at 1 µM in assay [2] (@ 1 μM) of 30 to 70%.
